Experimental data: ChEMBL document CHEMBL3991601, “The target landscape of clinical kinase drugs” (Science, 2017)
Active and inactive are the calls of the source.

Key:
[1] = molecular target: Non-receptor tyrosine-protein kinase TYK2 (Homo sapiens, UniProt P29597)
[2] = molecular target: T1, Phosphatidylinositol 5-phosphate 4-kinase type-2 alpha (Homo sapiens, UniProt P48426)
T1 sequence (P48426 whole entry): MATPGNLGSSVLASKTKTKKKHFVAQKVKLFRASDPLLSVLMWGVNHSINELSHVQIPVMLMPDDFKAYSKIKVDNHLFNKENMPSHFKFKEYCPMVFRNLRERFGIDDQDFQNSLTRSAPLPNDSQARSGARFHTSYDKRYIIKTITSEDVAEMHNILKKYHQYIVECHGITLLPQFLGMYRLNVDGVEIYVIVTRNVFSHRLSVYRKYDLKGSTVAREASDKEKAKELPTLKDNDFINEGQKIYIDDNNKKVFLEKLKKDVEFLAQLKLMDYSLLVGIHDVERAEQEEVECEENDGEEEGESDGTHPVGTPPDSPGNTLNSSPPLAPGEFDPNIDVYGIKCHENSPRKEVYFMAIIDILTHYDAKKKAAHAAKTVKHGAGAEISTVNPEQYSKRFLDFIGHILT

[3] = molecular target: Cyclin-dependent kinase 7 (Homo sapiens, UniProt P50613)
[4] = molecular target: T2, RNA cytidine acetyltransferase (Homo sapiens, UniProt Q9H0A0)
T2 sequence (Q9H0A0 whole entry): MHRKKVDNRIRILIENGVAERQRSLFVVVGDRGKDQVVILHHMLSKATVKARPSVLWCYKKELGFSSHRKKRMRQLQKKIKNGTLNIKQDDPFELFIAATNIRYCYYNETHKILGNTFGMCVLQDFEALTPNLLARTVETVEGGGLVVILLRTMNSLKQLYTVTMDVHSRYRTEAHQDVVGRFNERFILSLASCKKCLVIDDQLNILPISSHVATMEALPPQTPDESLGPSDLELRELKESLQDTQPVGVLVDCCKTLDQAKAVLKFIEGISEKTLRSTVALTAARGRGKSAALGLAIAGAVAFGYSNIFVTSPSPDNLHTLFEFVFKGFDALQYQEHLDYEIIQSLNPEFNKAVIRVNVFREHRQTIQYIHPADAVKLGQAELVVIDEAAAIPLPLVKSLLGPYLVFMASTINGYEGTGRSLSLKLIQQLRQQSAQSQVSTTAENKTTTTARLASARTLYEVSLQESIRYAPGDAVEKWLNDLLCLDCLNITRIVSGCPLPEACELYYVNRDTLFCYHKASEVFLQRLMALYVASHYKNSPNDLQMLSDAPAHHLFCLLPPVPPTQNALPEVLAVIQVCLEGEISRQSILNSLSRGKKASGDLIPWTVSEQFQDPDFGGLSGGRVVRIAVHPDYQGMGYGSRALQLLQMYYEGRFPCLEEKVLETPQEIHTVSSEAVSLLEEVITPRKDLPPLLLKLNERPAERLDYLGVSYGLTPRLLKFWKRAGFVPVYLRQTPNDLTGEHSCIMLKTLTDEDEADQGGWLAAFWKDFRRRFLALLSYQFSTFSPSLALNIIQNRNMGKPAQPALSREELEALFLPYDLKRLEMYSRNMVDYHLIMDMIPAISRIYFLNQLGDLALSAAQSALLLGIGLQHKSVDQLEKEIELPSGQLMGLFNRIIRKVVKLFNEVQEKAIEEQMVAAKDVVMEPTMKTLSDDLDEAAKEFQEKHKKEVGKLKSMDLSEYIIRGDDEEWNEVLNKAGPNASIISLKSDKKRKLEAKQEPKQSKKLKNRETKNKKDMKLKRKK

[5] = molecular target: T3, Uncharacterized protein FLJ45252 (Homo sapiens, UniProt Q6ZSR9); settings: read-out: Kd apparent; k-562, colo 205, sk-n-be(2) and mv-4-11
T3 sequence (Q6ZSR9 whole entry): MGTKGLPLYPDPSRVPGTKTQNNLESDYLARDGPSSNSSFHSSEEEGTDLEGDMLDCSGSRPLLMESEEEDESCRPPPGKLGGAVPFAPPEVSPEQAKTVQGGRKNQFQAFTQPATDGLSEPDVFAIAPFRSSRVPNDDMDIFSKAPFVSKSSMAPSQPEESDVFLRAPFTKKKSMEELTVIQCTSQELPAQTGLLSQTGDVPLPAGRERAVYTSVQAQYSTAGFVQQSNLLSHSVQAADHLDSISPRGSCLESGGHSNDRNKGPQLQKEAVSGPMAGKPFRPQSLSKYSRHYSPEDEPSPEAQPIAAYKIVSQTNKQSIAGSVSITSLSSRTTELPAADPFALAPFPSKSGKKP

[6] = molecular target: Ribosomal protein S6 kinase beta-1 (Homo sapiens, UniProt P23443)
[7] = molecular target: Mitogen-activated protein kinase 10 (Homo sapiens, UniProt P53779)
[8] = molecular target: T4, Mitogen-activated protein kinase 15 (Homo sapiens, UniProt Q8TD08)
T4 sequence (Q8TD08 whole entry): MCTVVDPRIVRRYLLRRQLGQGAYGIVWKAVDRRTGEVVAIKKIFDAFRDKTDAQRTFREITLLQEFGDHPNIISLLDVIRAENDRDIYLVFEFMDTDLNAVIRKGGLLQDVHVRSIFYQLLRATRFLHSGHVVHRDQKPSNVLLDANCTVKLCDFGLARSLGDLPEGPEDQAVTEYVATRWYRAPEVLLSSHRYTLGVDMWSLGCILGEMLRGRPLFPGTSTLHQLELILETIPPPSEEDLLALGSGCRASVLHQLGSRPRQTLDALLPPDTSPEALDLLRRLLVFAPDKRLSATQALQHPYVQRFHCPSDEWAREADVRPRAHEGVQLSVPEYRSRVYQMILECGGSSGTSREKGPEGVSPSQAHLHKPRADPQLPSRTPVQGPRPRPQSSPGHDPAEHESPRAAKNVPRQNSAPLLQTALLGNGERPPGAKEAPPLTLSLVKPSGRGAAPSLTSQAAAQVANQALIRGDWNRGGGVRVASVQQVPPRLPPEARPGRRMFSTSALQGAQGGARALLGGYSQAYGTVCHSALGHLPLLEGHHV
Also: in the data inactive means no Kd found up to 30 µM.

Chain of Mitogen-activated protein kinase 10 (P53779 whole entry): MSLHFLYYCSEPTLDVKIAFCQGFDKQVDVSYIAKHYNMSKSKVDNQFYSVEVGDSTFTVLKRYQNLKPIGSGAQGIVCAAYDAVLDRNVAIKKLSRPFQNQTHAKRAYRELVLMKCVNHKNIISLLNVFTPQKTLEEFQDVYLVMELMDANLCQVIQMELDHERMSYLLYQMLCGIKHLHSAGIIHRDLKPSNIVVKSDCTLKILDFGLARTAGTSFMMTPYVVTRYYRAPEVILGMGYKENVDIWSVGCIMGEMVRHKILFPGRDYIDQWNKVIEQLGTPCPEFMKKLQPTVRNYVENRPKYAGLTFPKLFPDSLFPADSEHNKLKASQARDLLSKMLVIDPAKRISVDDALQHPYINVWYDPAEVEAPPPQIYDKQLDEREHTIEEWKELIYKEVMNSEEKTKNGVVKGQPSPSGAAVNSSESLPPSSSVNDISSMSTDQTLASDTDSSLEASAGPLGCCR
Chain of Ribosomal protein S6 kinase beta-1 (P23443 whole entry): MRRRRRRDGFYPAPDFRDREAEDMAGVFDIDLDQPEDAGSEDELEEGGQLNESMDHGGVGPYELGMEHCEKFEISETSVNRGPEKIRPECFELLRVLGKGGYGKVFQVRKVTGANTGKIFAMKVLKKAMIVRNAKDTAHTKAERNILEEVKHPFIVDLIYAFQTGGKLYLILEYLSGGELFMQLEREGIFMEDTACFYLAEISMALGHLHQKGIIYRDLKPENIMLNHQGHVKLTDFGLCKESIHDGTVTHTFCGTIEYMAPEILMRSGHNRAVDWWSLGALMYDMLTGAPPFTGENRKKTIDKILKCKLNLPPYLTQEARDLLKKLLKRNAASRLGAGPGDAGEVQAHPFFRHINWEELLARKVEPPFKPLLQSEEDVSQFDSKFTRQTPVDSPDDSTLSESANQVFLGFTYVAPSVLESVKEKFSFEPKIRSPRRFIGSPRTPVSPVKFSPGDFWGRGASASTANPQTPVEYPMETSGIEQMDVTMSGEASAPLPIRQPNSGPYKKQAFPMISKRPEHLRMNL
Chain of Non-receptor tyrosine-protein kinase TYK2 (P29597 whole entry): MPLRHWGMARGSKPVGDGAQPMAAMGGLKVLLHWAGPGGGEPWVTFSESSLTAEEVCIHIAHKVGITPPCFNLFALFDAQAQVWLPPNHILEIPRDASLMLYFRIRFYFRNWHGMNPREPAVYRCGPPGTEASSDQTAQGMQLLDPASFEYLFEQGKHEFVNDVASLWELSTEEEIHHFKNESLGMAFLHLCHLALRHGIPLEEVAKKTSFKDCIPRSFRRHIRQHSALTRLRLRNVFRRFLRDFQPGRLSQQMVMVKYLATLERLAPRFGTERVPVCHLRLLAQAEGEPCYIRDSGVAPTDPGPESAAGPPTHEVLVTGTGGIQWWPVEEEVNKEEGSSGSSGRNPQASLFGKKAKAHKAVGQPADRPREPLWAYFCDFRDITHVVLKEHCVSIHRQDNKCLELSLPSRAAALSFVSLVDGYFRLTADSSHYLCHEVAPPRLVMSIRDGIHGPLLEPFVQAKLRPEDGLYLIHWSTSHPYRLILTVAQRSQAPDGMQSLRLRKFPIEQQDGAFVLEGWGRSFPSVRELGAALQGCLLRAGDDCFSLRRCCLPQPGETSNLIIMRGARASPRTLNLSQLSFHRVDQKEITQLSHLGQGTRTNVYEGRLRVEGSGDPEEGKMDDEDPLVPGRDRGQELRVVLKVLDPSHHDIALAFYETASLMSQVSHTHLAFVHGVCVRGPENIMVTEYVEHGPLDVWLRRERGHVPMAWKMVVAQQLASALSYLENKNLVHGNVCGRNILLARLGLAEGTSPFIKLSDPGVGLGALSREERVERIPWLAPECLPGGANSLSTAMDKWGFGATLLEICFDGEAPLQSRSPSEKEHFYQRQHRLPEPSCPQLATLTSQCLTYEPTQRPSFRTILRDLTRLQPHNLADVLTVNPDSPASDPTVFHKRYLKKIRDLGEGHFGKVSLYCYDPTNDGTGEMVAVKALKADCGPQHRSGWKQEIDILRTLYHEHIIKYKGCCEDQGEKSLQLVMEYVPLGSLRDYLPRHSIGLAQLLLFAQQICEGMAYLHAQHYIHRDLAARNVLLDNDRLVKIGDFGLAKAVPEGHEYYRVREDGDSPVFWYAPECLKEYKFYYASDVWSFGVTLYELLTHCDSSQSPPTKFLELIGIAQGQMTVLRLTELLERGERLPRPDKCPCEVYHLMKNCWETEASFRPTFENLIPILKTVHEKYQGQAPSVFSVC
Chain of Cyclin-dependent kinase 7 (P50613 whole entry): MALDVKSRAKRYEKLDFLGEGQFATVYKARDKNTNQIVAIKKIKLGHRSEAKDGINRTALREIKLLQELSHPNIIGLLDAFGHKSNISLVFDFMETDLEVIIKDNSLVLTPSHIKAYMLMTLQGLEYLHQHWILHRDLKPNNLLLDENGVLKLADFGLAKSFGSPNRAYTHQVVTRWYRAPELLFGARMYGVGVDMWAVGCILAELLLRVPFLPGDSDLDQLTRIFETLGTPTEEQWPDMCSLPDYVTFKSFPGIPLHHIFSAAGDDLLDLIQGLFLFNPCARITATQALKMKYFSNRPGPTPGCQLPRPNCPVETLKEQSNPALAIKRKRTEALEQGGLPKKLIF

SMILES | Kd [1] | Kd [2] | Kd [3] | Kd [4] | Kd [5] | Kd [6] | Kd [7] | Kd [8]
COc1cc2nccc(Oc3ccc(NC(=O)C4(C(=O)Nc5ccc(F)cc5)CC4)cc3)c2cc1OC [CABOZANTINIB] | > 30 µM (inactive) | > 30 µM (inactive) | > 30 µM (inactive) | > 30 µM (inactive) | > 30 µM (inactive) | > 30 µM (inactive) | > 30 µM (inactive) | > 30 µM (inactive)
c1cc(OCCN2CCCCC2)cc(-c2n[nH]c3ccc(-c4nc[nH]n4)cc23)c1 [CC-401] | > 30 µM (inactive) | > 30 µM (inactive) | > 30 µM (inactive) | > 30 µM (inactive) | 2.53 µM (active) | > 30 µM (inactive) | 3.24 µM (active) | > 30 µM (inactive)
COc1cc2ncnc(Nc3ccc(F)c(Cl)c3)c2cc1NC(=O)/C=C/CN1CCCCC1 [DACOMITINIB ANHYDROUS] | > 30 µM (inactive) | > 30 µM (inactive) | > 30 µM (inactive) | > 30 µM (inactive) | > 30 µM (inactive) | > 30 µM (inactive) | > 30 µM (inactive) | > 30 µM (inactive)
COc1cc(Nc2ncc(F)c(Nc3ccc4c(n3)N(COP(=O)(O)O)C(=O)C(C)(C)O4)n2)cc(OC)c1OC [FOSTAMATINIB] | > 30 µM (inactive) | > 30 µM (inactive) | > 30 µM (inactive) | > 30 µM (inactive) | > 30 µM (inactive) | > 30 µM (inactive) | > 30 µM (inactive) | > 30 µM (inactive)
CCc1nc(C(N)=O)c(Nc2ccc(N3CCC(N4CCN(C)CC4)CC3)c(OC)c2)nc1NC1CCOCC1 [GILTERITINIB] | > 30 µM (inactive) | > 30 µM (inactive) | > 30 µM (inactive) | > 30 µM (inactive) | 0.011 µM (active) | > 30 µM (inactive) | 0.512 µM (active) | 0.263 µM
Cc1c(Cn2c(C)nc3c(C(=O)O)cc(N4CCOCC4)cc32)cccc1C(F)(F)F [GSK-2636771] | > 30 µM (inactive) | > 30 µM (inactive) | > 30 µM (inactive) | > 30 µM (inactive) | > 30 µM (inactive) | > 30 µM (inactive) | > 30 µM (inactive) | > 30 µM (inactive)
O=S(=O)(c1cccc2c(O)nccc12)N1CCCNCC1 [HYDROXYFASUDIL] | > 30 µM (inactive) | > 30 µM (inactive) | > 30 µM (inactive) | > 30 µM (inactive) | > 30 µM (inactive) | > 30 µM (inactive) | > 30 µM (inactive) | > 30 µM (inactive)
Cc1ccc(C(=O)Nc2ccc(Oc3cc4cnn(C)c4cc3-c3cn[nH]c3)c(F)c2)c(=O)n1-c1ccc(F)cc1 [MERESTINIB] | > 30 µM (inactive) | > 30 µM (inactive) | > 30 µM (inactive) | > 30 µM (inactive) | > 30 µM (inactive) | > 30 µM (inactive) | > 30 µM (inactive) | > 30 µM (inactive)
O=C(NOC[C@H](O)CO)c1ccc(F)c(F)c1Nc1ccc(I)cc1F [MIRDAMETINIB] | > 30 µM (inactive) | > 30 µM (inactive) | > 30 µM (inactive) | > 30 µM (inactive) | > 30 µM (inactive) | > 30 µM (inactive) | > 30 µM (inactive) | > 30 µM (inactive)
COc1cccc2cc(-c3nc([C@H]4CC[C@H](C(=O)O)CC4)n4ncnc(N)c34)[nH]c12 [OSI-027] | > 30 µM (inactive) | > 30 µM (inactive) | > 30 µM (inactive) | > 30 µM (inactive) | > 30 µM (inactive) | > 30 µM (inactive) | 1.62 µM | > 30 µM (inactive)
O=C(Nc1ccc(OC(F)(F)F)cc1)c1sccc1NCc1ccnc2ccccc12 [OSI-930] | > 30 µM (inactive) | > 30 µM (inactive) | > 30 µM (inactive) | > 30 µM (inactive) | > 30 µM (inactive) | > 30 µM (inactive) | > 30 µM (inactive) | > 30 µM (inactive)
COc1cc(F)c(F)c(Nc2ccc(I)cc2F)c1NS(=O)(=O)C1(C[C@H](O)CO)CC1 [REFAMETINIB] | > 30 µM (inactive) | > 30 µM (inactive) | > 30 µM (inactive) | > 30 µM (inactive) | > 30 µM (inactive) | > 30 µM (inactive) | 0.036 µM (active) | > 30 µM (inactive)
COCCN1CCN(Cc2ccc(-c3n[nH]c4c3C(=O)c3c(NC(=O)NN5CCOCC5)cccc3-4)cc2)CC1 [RGB-286638] | > 30 µM (inactive) | > 30 µM (inactive) | 0.154 µM (active) | > 30 µM (inactive) | 0.022 µM (active) | > 30 µM (inactive) | 0.011 µM | > 30 µM (inactive)
Cc1cc(C(=O)Nc2cc(Oc3ccc4nc(NC(=O)C5CC5)cn4n3)ccc2C)n(C)n1 [TAK-593] | > 30 µM (inactive) | > 30 µM (inactive) | > 30 µM (inactive) | > 30 µM (inactive) | 0.869 µM (active) | > 30 µM (inactive) | > 30 µM (inactive) | > 30 µM (inactive)
Cn1c(=O)c(F)c(Nc2ccc(I)cc2F)c2c(=O)n(C[C@@H](O)CO)cnc21 [TAK-733] | > 30 µM (inactive) | > 30 µM (inactive) | > 30 µM (inactive) | > 30 µM (inactive) | > 30 µM (inactive) | > 30 µM (inactive) | > 30 µM (inactive) | > 30 µM (inactive)
Cc1cc(-c2cc(OC(=O)c3ccccc3)ccc2Cl)cc2nnc(Nc3ccc(OCCN4CCCC4)cc3)nc12 [TG100-801] | > 30 µM (inactive) | > 30 µM (inactive) | > 30 µM (inactive) | > 30 µM (inactive) | > 30 µM (inactive) | > 30 µM (inactive) | > 30 µM (inactive) | > 30 µM (inactive)
C[C@@H]1COC(Nc2ccc3ncnc(Nc4ccc(OCc5nccs5)c(Cl)c4)c3c2)=N1 [VARLITINIB] | > 30 µM (inactive) | > 30 µM (inactive) | > 30 µM (inactive) | > 30 µM (inactive) | > 30 µM (inactive) | > 30 µM (inactive) | > 30 µM (inactive) | > 30 µM (inactive)
